{
  "source": "PubChem BioAssay AID270",
  "about": "(DTP/NCI, 2004)",
  "system": "BDF1 mice, s.c. Lewis lung carcinoma, T/C %",
  "assay": "NCI In Vivo Anticancer Drug Screen. Data for tumor model Lewis Lung Carcinoma (subcutaneous) in B6D2F1 (BDF1) mice",
  "in_short": "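The value reflects a ratio in which the treated cohort's survival time or tumour size is compared against mice receiving only vehicle.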",
  "key": {"[1]": {"settings": "endpoint: median survival time, dose: 100.0 mg/kg/injection, schedule: Q01DX009 (ip), vehicle: saline with Tween-80, higher = longer survival"}},
  "note": "Values joined by “and” are separate entries in the source; they are usually repeats but may differ in a detail not shown here. Equal entries are not always repeated. Inconclusive results are not listed.",
  "data": [
    {"smiles": "CO[C@H]1/C=C/O[C@@]2(C)Oc3c(C)c(O)c4c(O)c(c(/C=N/N5C(C)CN(Cc6ccccc6)CC5C)c(O)c4c3C2=O)NC(=O)/C(C)=C\\C=C\\[C@H](C)[C@H](O)[C@@H](C)[C@@H](O)[C@@H](C)[C@H](OC(C)=O)[C@@H]1C", "note": "(stereo partly specified)", "values": [
      {"measurement": "T/C", "setting": "endpoint: mean tumor weight, dose: 50.0 mg/kg/injection, schedule: Q01DX009 (ip), vehicle: saline with Tween-80, higher = larger tumour", "value": "112 % of control"},
      {"measurement": "T/C", "setting": "endpoint: mean tumor weight, dose: 100.0 mg/kg/injection, schedule: Q01DX009 (ip), vehicle: saline with Tween-80, higher = larger tumour", "value": "93 % of control"},
      {"measurement": "T/C", "setting": "endpoint: mean tumor weight, dose: 200.0 mg/kg/injection, schedule: Q01DX009 (ip), vehicle: saline with Tween-80, higher = larger tumour", "value": "65 % of control"},
      {"measurement": "T/C", "setting": "endpoint: mean tumor weight, dose: 400.0 mg/kg/injection, schedule: Q01DX009 (ip), vehicle: saline with Tween-80, higher = larger tumour", "value": "47 % of control"},
      {"measurement": "T/C", "setting": "endpoint: median survival time, dose: 1.6 mg/kg/injection, schedule: Q02DX Z (oral), vehicle: Klucel (hydroxypropylcellulose) (HPC), higher = longer survival", "value": "95 % of control"},
      {"measurement": "T/C", "setting": "endpoint: median survival time, dose: 3.12 mg/kg/injection, schedule: Q02DX Z (oral), vehicle: Klucel (hydroxypropylcellulose) (HPC), higher = longer survival", "value": "91 % of control"},
      {"measurement": "T/C", "setting": "endpoint: median survival time, dose: 12.5 mg/kg/injection, schedule: Q02DX Z (oral), vehicle: Klucel (hydroxypropylcellulose) (HPC), higher = longer survival", "value": "87 % of control"},
      {"measurement": "T/C", "setting": "endpoint: median survival time, dose: 25.0 mg/kg/injection, schedule: Q02DX Z (oral), vehicle: Klucel (hydroxypropylcellulose) (HPC), higher = longer survival", "value": "91 % of control"},
      {"measurement": "T/C", "setting": "endpoint: median survival time, dose: 50.0 mg/kg/injection, schedule: Q02DX Z (oral), vehicle: Klucel (hydroxypropylcellulose) (HPC), higher = longer survival", "value": "95 % of control"},
      {"measurement": "T/C", "setting": "[1]", "value": "112 % of control"},
      {"measurement": "T/C", "setting": "endpoint: median survival time, dose: 100.0 mg/kg/injection, schedule: Q02DX Z (oral), vehicle: Klucel (hydroxypropylcellulose) (HPC), higher = longer survival", "value": "94 % of control"},
      {"measurement": "T/C", "setting": "endpoint: median survival time, dose: 200.0 mg/kg/injection, schedule: Q01DX009 (ip), vehicle: saline with Tween-80, higher = longer survival", "value": "100 % of control"},
      {"measurement": "T/C", "setting": "endpoint: median survival time, dose: 200.0 mg/kg/injection, schedule: Q02DX Z (oral), vehicle: Klucel (hydroxypropylcellulose) (HPC), higher = longer survival", "value": "102 % of control"}
    ]},
    {"smiles": "[O-][n+]1c(CCl)nc2cccc3c2c1-c1ccccc1-3", "values": [
      {"measurement": "T/C", "setting": "endpoint: median survival time, dose: 25.0 mg/kg/injection, schedule: Q01DX009 (ip), vehicle: saline with Tween-80, higher = longer survival", "value": "106 % of control and 111 % of control"},
      {"measurement": "T/C", "setting": "endpoint: median survival time, dose: 50.0 mg/kg/injection, schedule: Q01DX009 (ip), vehicle: saline with Tween-80, higher = longer survival", "value": "112 % of control and 118 % of control"},
      {"measurement": "T/C", "setting": "[1]", "value": "94 % of control"}
    ]},
    {"smiles": "Nc1nc(=S)c2[nH]c(N=Nc3ccc(S(=O)(=O)Nc4ncccn4)cc3)nc2[nH]1", "values": [
      {"measurement": "T/C", "setting": "endpoint: median survival time, dose: 0.78 mg/kg/injection, schedule: Q01DX009 (ip), vehicle: Klucel (hydroxypropylcellulose) (HPC), higher = longer survival", "value": "99 % of control"},
      {"measurement": "T/C", "setting": "endpoint: median survival time, dose: 1.56 mg/kg/injection, schedule: Q01DX009 (ip), vehicle: Klucel (hydroxypropylcellulose) (HPC), higher = longer survival", "value": "101 % of control"},
      {"measurement": "T/C", "setting": "endpoint: median survival time, dose: 3.12 mg/kg/injection, schedule: Q01DX009 (ip), vehicle: Klucel (hydroxypropylcellulose) (HPC), higher = longer survival", "value": "95 % of control"},
      {"measurement": "T/C", "setting": "endpoint: median survival time, dose: 6.25 mg/kg/injection, schedule: Q01DX009 (ip), vehicle: Klucel (hydroxypropylcellulose) (HPC), higher = longer survival", "value": "105 % of control"}
    ]},
    {"smiles": "Cc1c2ccncc2c(C)c2c1[nH]c1ccccc12", "values": [
      {"measurement": "T/C", "setting": "endpoint: median survival time, dose: 37.5 mg/kg/injection, schedule: Q04DX003 (ip), vehicle: saline with Tween-80, higher = longer survival", "value": "120 % of control"},
      {"measurement": "T/C", "setting": "endpoint: median survival time, dose: 75.0 mg/kg/injection, schedule: Q04DX003 (ip), vehicle: saline with Tween-80, higher = longer survival", "value": "87 % of control"}
    ]},
    {"smiles": "FC(F)(F)c1nc2nc(Cl)c(Cl)nc2[nH]1", "values": [
      {"measurement": "T/C", "setting": "endpoint: median survival time, dose: 11.25 mg/kg/injection, schedule: Q01DX009 (ip), vehicle: Klucel (hydroxypropylcellulose) (HPC), higher = longer survival", "value": "105 % of control"},
      {"measurement": "T/C", "setting": "endpoint: median survival time, dose: 22.5 mg/kg/injection, schedule: Q01DX009 (ip), vehicle: Klucel (hydroxypropylcellulose) (HPC), higher = longer survival", "value": "101 % of control"},
      {"measurement": "T/C", "setting": "endpoint: median survival time, dose: 45.0 mg/kg/injection, schedule: Q01DX009 (ip), vehicle: Klucel (hydroxypropylcellulose) (HPC), higher = longer survival", "value": "96 % of control"},
      {"measurement": "T/C", "setting": "endpoint: median survival time, dose: 90.0 mg/kg/injection, schedule: Q01DX009 (ip), vehicle: Klucel (hydroxypropylcellulose) (HPC), higher = longer survival", "value": "98 % of control"}
    ]},
    {"smiles": "COc1ccc(-c2cc(=O)c3ccccc3o2)c(OC)c1OC", "values": [
      {"measurement": "T/C", "setting": "endpoint: mean tumor weight, dose: 50.0 mg/kg/injection, schedule: Q01DX010 (ip), vehicle: saline, higher = larger tumour", "value": "95 % of control"},
      {"measurement": "T/C", "setting": "endpoint: mean tumor weight, dose: 100.0 mg/kg/injection, schedule: Q01DX010 (ip), vehicle: saline, higher = larger tumour", "value": "101 % of control"},
      {"measurement": "T/C", "setting": "endpoint: mean tumor weight, dose: 200.0 mg/kg/injection, schedule: Q01DX010 (ip), vehicle: saline, higher = larger tumour", "value": "83 % of control"},
      {"measurement": "T/C", "setting": "endpoint: mean tumor weight, dose: 400.0 mg/kg/injection, schedule: Q01DX010 (ip), vehicle: saline, higher = larger tumour", "value": "99 % of control"}
    ]},
    {"smiles": "Nc1ncnc2c1ncn2C1OC(CO)CC1O", "note": "(stereo unspecified)", "values": [
      {"measurement": "T/C", "setting": "endpoint: mean tumor weight, dose: 37.0 mg/kg/injection, schedule: Q01DX011 (ip), vehicle: saline, higher = larger tumour", "value": "101 % of control"},
      {"measurement": "T/C", "setting": "endpoint: mean tumor weight, dose: 75.0 mg/kg/injection, schedule: Q01DX011 (ip), vehicle: saline, higher = larger tumour", "value": "86 % of control"}
    ]},
    {"smiles": "CCCCC(=O)OCC(=O)[C@]1(O)Cc2c(O)c3c(c(O)c2[C@@H](OC2CC(NC(=O)C(F)(F)F)C(O)C(C)O2)C1)C(=O)c1c(OC)cccc1C3=O", "note": "(stereo partly specified)", "values": [
      {"measurement": "T/C", "setting": "endpoint: median survival time, dose: 14.0 mg/kg/injection, schedule: Q01DX009 (ip), vehicle: distilled water + Tween-80, higher = longer survival", "value": "114 % of control"},
      {"measurement": "T/C", "setting": "endpoint: median survival time, dose: 20.0 mg/kg/injection, schedule: Q01DX009 (ip), vehicle: distilled water + Tween-80, higher = longer survival", "value": "123 % of control"},
      {"measurement": "T/C", "setting": "endpoint: median survival time, dose: 54.0 mg/kg/injection, schedule: Q01DX001 (ip), vehicle: distilled water + Tween-80, higher = longer survival", "value": "113 % of control"},
      {"measurement": "T/C", "setting": "endpoint: median survival time, dose: 80.0 mg/kg/injection, schedule: Q01DX001 (ip), vehicle: distilled water + Tween-80, higher = longer survival", "value": "155 % of control"},
      {"measurement": "T/C", "setting": "endpoint: median survival time, dose: 120.0 mg/kg/injection, schedule: Q01DX001 (ip), vehicle: distilled water + Tween-80, higher = longer survival", "value": "158 % of control"}
    ]},
    {"smiles": "Cc1ccc(S(=O)(=O)[O][Pb]([CH3])([CH3])[CH3])cc1", "values": [
      {"measurement": "T/C", "setting": "endpoint: median survival time, dose: 0.18 mg/kg/injection, schedule: Q01DX009 (ip), vehicle: saline, higher = longer survival", "value": "98 % of control and 122 % of control"},
      {"measurement": "T/C", "setting": "endpoint: median survival time, dose: 0.37 mg/kg/injection, schedule: Q01DX009 (ip), vehicle: saline, higher = longer survival", "value": "108 % of control"},
      {"measurement": "T/C", "setting": "endpoint: median survival time, dose: 0.75 mg/kg/injection, schedule: Q01DX009 (ip), vehicle: saline, higher = longer survival", "value": "116 % of control"},
      {"measurement": "T/C", "setting": "endpoint: median survival time, dose: 1.5 mg/kg/injection, schedule: Q01DX009 (ip), vehicle: saline, higher = longer survival", "value": "109 % of control"}
    ]}
  ]
}
